In PubChem BioAssay (NCI) one finds GI50 and TGI data, which are given here for 7 compounds.

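Each compound was tested at five concentrations against cells in 96-well plates for 48 hours. GI50: concentration for 50% inhibition of growth. TGI: concentration producing complete growth inhibition.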

Some test systems named below: SNB-75 CNS; A549 NSCLC; A498 renal; OVCAR-4 ovarian; OVCAR-3 ovarian; IGROV1 ovarian; SF-295 CNS; COLO 205 colon.
Common to all, as to assay: NCI tumour cell line growth inhibition, 48 h

For the compound `Nc1nc2ccc(CNc3ccc(C(=O)NC(CC(=O)O)C(=O)O)cc3)cc2c(=O)[nH]1` (stereo not given), the GI50 with SNB-75 CNS is above 100000 nM; with A549 NSCLC it was 549 nM; in the assay on A498 renal it was above 38900 nM; with OVCAR-4 ovarian it was above 100000 nM; in the assay with OVCAR-3 ovarian, 16200 nM; in the assay on IGROV1 ovarian, 3320 nM. Besides, the GI50 was 1000 nM in the assay on SF-295 CNS and 10700 nM with COLO 205 colon. For the same compound, the TGI is above 100000 nM in the assay on SNB-75 CNS; above 100000 nM in the assay with A498 renal; above 100000 nM in the assay with OVCAR-4 ovarian; above 100000 nM with OVCAR-3 ovarian; above 100000 nM with IGROV1 ovarian; above 28700 nM with SF-295 CNS. Further, the TGI with COLO 205 colon is above 100000 nM.
With `CCN1C(=O)/C(=c2\sc3n(c2=O)C2C(NN=3)N(CC)C(=O)N2CC)c2ccccc21` (stereo not given), the GI50 with SNB-75 CNS was 189 nM; with A549 NSCLC, 795 nM; with A498 renal it was 181 nM; with OVCAR-4 ovarian, 5480 nM; in the assay on OVCAR-3 ovarian, 323 nM; in the assay with IGROV1 ovarian, 574 nM. The GI50 was 377 nM in the assay with SF-295 CNS and 468 nM with COLO 205 colon. The TGI in the assay on SNB-75 CNS is 856 nM; in the assay with A549 NSCLC it was above 100000 nM; in the assay on A498 renal, 697 nM; in the assay with OVCAR-4 ovarian, above 100000 nM; in the assay with OVCAR-3 ovarian, 3320 nM; in the assay with IGROV1 ovarian, above 65500 nM. Also, the TGI with SF-295 CNS worked out at 6640 nM; with COLO 205 colon it was 11300 nM.
For the compound `COc1cccc2nc(Nc3cccc(NC(=O)c4ccc(N5CCN(C)CC5)c(C(F)(F)F)c4)c3)ccc12`, the GI50 in the assay with SNB-75 CNS is 695 nM; in the assay with A549 NSCLC, 1430 nM; in the assay with A498 renal it was 1800 nM; in the assay on OVCAR-4 ovarian, 1430 nM; in the assay on OVCAR-3 ovarian, 1210 nM; in the assay on IGROV1 ovarian, 1250 nM. The GI50 with SF-295 CNS is 967 nM; in the assay with COLO 205 colon it was 909 nM. Besides, the TGI is 1680 nM in the assay with SNB-75 CNS; 5030 nM with A549 NSCLC; 6460 nM in the assay on A498 renal; 6670 nM in the assay with OVCAR-4 ovarian; 3070 nM with OVCAR-3 ovarian; 4240 nM in the assay with IGROV1 ovarian. The TGI was 1920 nM in the assay with SF-295 CNS and 1830 nM with COLO 205 colon.
With `NC(=O)c1c[nH]c2ncnc(N)c12`, the GI50 in the assay on SNB-75 CNS was 13300 nM; with A549 NSCLC, above 100000 nM; with A498 renal it was 22900 nM; in the assay on OVCAR-4 ovarian it was 24100 nM; in the assay on OVCAR-3 ovarian, 23500 nM; in the assay on IGROV1 ovarian it was 36600 nM. For the same compound, the GI50 in the assay on SF-295 CNS is 31100 nM; in the assay with COLO 205 colon, 27000 nM. The TGI with SNB-75 CNS was 59300 nM; with A549 NSCLC, above 100000 nM; with A498 renal it was 67400 nM; with OVCAR-4 ovarian, above 100000 nM; in the assay on OVCAR-3 ovarian it was above 100000 nM; with IGROV1 ovarian it was above 100000 nM. Further, the TGI with SF-295 CNS and in the assay with COLO 205 colon was above 100000 nM in each case.
With `CCOC(=O)C1=C(C)NC2SC(=O)/C(=C\c3cccc(Cl)c3)N2C1c1ccccc1` (stereo not given), the GI50 was above 100000 nM in the assay with SNB-75 CNS; above 100000 nM in the assay on A549 NSCLC; above 100000 nM with A498 renal; 84300 nM in the assay with OVCAR-4 ovarian; above 100000 nM with OVCAR-3 ovarian; above 100000 nM in the assay on IGROV1 ovarian. Besides, the GI50 with SF-295 CNS and with COLO 205 colon was above 100000 nM each time. Besides, the TGI in the assay on SNB-75 CNS, in the assay on A549 NSCLC, in the assay with A498 renal, in the assay with OVCAR-4 ovarian, in the assay with OVCAR-3 ovarian and in the assay with IGROV1 ovarian was above 100000 nM in each case. The TGI in the assay on SF-295 CNS and with COLO 205 colon was above 100000 nM throughout.
For the compound `CCCCCCCCCCCCCCCC(=O)NS(=O)(=O)OC[C@H]1O[C@@H](n2cnc3c(N)ncnc32)[C@H](O)[C@@H]1O`, the GI50 with SNB-75 CNS is below 47.1 nM; in the assay on A549 NSCLC, 1670 nM; in the assay with A498 renal, below 30 nM; in the assay on OVCAR-4 ovarian it was 39.2 nM; in the assay with IGROV1 ovarian, 37.1 nM; in the assay with SF-295 CNS, 1010 nM. Moreover, the GI50 in the assay on COLO 205 colon is below 15.7 nM. For the same compound, the TGI with SNB-75 CNS was 1290 nM; in the assay on A549 NSCLC it was 3820 nM; in the assay with A498 renal, below 48 nM; in the assay with OVCAR-4 ovarian it was 255 nM; in the assay on OVCAR-3 ovarian it was 124 nM; with IGROV1 ovarian, 199 nM. Moreover, the TGI is 2310 nM in the assay with SF-295 CNS and below 23.8 nM with COLO 205 colon.
As for `O=C1/C(=C/c2ccc(Cl)cc2)CN(Cc2cn(CCCNc3ccnc4cc(Cl)ccc34)nn2)C/C1=C\c1ccc(Cl)cc1`, the GI50 in the assay on SNB-75 CNS is 1390 nM; in the assay with A549 NSCLC it was 1150 nM; in the assay with A498 renal, 1230 nM; in the assay with OVCAR-4 ovarian it was 500 nM; with OVCAR-3 ovarian it was 560 nM; with IGROV1 ovarian, 1290 nM. Further, the values for the GI50 in the assay on SF-295 CNS and with COLO 205 colon were 708 nM and 565 nM, respectively. Further, the TGI with SNB-75 CNS worked out at 2920 nM; in the assay with A549 NSCLC, 2560 nM; with A498 renal it was 2530 nM; in the assay with OVCAR-4 ovarian, 2380 nM; in the assay on OVCAR-3 ovarian, 1850 nM; in the assay with IGROV1 ovarian, 3120 nM. In addition, the TGI with SF-295 CNS was 1840 nM; in the assay on COLO 205 colon it was 1800 nM.
